test system: Escherichia coli strain ATCC25922; assay: standard microdilution assay to determine minimum inhibitory concentrations (MICs); assay type: cell-based; details: Escherichia coli strain ATCC25922, microdilution
Description: Minimum inhibitory concentrations (MICs) are determined by the microdilution method, typically in a final volume of 100 microliters, according to protocols outlined by The Clinical and Laboratory Standards Institute [CLSI; formerly the National Committee for Clinical Laboratory Standards (NCCLS)]. See CLSI: Methods for dilution antimicrobial susceptibility tests for bacteria that grow aerobically; approved standard-fifth edition. Wayne, Pa.: NCCLS; 2000. The assays can be also be performed in microtiter trays according to conventional methodologies as published by the CLSI. See CLSI. Methods for Dilution Antimicrobial Susceptibility Tests for Bacteria That Grow Aerobically; Approved Standard—Seventh Edition. CLSI Document M7-A7 [ISBN 1-56238-587-9] CLSI, 940 West Valley Road, Suite 1400, Wayne Pa. 19087-1898 USA, 2006).
The compounds of the present invention were tested for antimicrobial activity. The compounds were run against Escherichia coli strain ATCC25922 using a standard microdilution assay to determine minimum inhibitory concentrations (MICs). […] A “N/A” means that data is unavailable. It will be recognized by one skilled in the art that the compounds can be assessed against other bacterial organisms and that the presentation of data for activity against Escherichia coli is illustrative and in no way is intended to limit the scope of the present invention. The compounds of the present invention can be assayed against a range of other microorganisms depending upon the performance activity desired to be gathered. Furthermore, the “+”, “−”, and “N/A” representation and the selection of a cutoff value of 16 micrograms/ml is also illustrative and in no way is intended to limit the scope of the present invention.

Row | SMILES | E. coli ATCC25922 MIC
1 | N=C(N)NCCCNCc1ccc(-n2cc3cc(-c4cc(C(=O)Nc5nc(C(F)(F)F)cs5)cc(N5CCNCC5)c4)[nH]c3nc2=O)cc1 [Compound 1061] | + (a “+” indicates that the compound has an MIC value of 16 micrograms/ml or less)
2 | N=C(N)NCCCNCc1ccc(-n2cc3cc(-c4cccc(OCC5CNCCO5)c4)[nH]c3nc2=O)cc1 (centres unmarked) [Compound 1452] | + (a “+” indicates that the compound has an MIC value of 16 micrograms/ml or less)
3 | N=C(N)NCCCNC(=O)Cn1cc2cc(-c3ccc(S(=O)(=O)NC4CCNCC4)cc3)[nH]c2nc1=O [Compound 1289] | − (a “−” indicates that the compound has an MIC value greater than 16 micrograms/ml)
4 | N=C(N)NCCCNCc1ccc(-c2cn3cc(C(=O)Nc4cccc(OC(F)(F)F)c4)[nH]c3nc2=O)cc1 [Compound 974] | − (a “−” indicates that the compound has an MIC value greater than 16 micrograms/ml)
5 | NC(N)=NCCC(=O)NCc1ccc(-n2cc3cc(-c4ccc(S(=O)(=O)N(CCCc5cccnc5)C5CCNCC5)cc4)[nH]c3nc2=O)cc1 [Compound 1190] | − (a “−” indicates that the compound has an MIC value greater than 16 micrograms/ml)
6 | N=C(N)NCCCNCc1ccc(-n2cc3cc(-c4ccc(S(=O)(=O)NC5CCCNC5)cc4)[nH]c3nc2=O)cc1 (centres unmarked) [Compound 805] | + (a “+” indicates that the compound has an MIC value of 16 micrograms/ml or less)
7 | COc1ccc(CN(C2CCNCC2)S(=O)(=O)c2ccc(-c3cc4cn(-c5ccc(C(N)=O)cc5)c(=O)nc4[nH]3)cc2)cc1[N+](=O)[O-] [Compound 1091] | − (a “−” indicates that the compound has an MIC value greater than 16 micrograms/ml)
8 | N=C(N)NCCCNCc1ccc(-n2cc3cc(-c4cccc(OCC5(CN)CCC5)c4)[nH]c3nc2=O)cc1 [Compound 1434] | + (a “+” indicates that the compound has an MIC value of 16 micrograms/ml or less)
9 | N=C(N)NCCCNCc1ccc(-n2cc3cc(-c4ccc(S(=O)(=O)N(CCCc5cccnc5)C5CCNCC5)cc4)[nH]c3nc2=O)cc1 [Compound 801] | + (a “+” indicates that the compound has an MIC value of 16 micrograms/ml or less)
10 | N=C(N)NCCCNCc1ccc(-n2cc3cc(-c4ccc(C(NC5CN(C(=N)N)C5)C(F)F)cc4)[nH]c3nc2=O)cc1 (centres unmarked) [Compound 2006a] | + (a “+” indicates that the compound has an MIC value of 16 micrograms/ml or less)
11 | NCc1ccc(-n2cc3cc(-c4ccc(S(=O)(=O)N(CC5COc6ccccc6O5)C5CCNCC5)cc4)[nH]c3nc2=O)cc1 (centres unmarked) [Compound 985] | − (a “−” indicates that the compound has an MIC value greater than 16 micrograms/ml)
12 | N=C(N)NCCCNCc1ccc(-n2cc3cc(C4CCCN(Cc5cnc[nH]5)C4)[nH]c3nc2=O)cc1 (centres unmarked) [Compound 2003a] | − (a “−” indicates that the compound has an MIC value greater than 16 micrograms/ml)
13 | N=C(N)NCCCNCc1ccc(-n2cc3cc(-c4cc(C(=O)NCCCF)cc(N5CCNCC5)c4)[nH]c3nc2=O)cc1 [Compound 997] | + (a “+” indicates that the compound has an MIC value of 16 micrograms/ml or less)
14 | N=C(N)NCCCNCc1ccc(-n2cc3cc(-c4ccc(S(=O)(=O)NC5CNC5)cc4)[nH]c3nc2=O)cc1 [Compound 1122] | + (a “+” indicates that the compound has an MIC value of 16 micrograms/ml or less)
15 | CN(CCCO)C(=O)c1cc(-c2cc3cn(-c4ccc(CNCCCNC(=N)N)cc4)c(=O)nc3[nH]2)cc(N2CCNCC2)c1 [Compound 940] | + (a “+” indicates that the compound has an MIC value of 16 micrograms/ml or less)
16 | N=C(N)NCCCNCc1ccc(-n2cc3cc(-c4cc(CCO)cc(CCCCN)c4)[nH]c3nc2=O)cc1 [Compound 2053a] | + (a “+” indicates that the compound has an MIC value of 16 micrograms/ml or less)
17 | Cc1cc([N+](=O)[O-])nn1CCCN(C1CCNCC1)S(=O)(=O)c1ccc(-c2cc3cn(-c4ccc(CNCCCNC(=N)N)cc4)c(=O)nc3[nH]2)cc1 [Compound 998] | + (a “+” indicates that the compound has an MIC value of 16 micrograms/ml or less)
18 | CSc1cc(CCCCN)cc(-c2cc3cn(-c4ccc(CNCCCNC(=N)N)cc4)c(=O)nc3[nH]2)c1 [Compound 2066a] | + (a “+” indicates that the compound has an MIC value of 16 micrograms/ml or less)
19 | COCc1cc(OCC(F)CN)cc(-c2cc3cn(-c4ccc(CNCCCNC(=N)N)cc4)c(=O)nc3[nH]2)c1 (centres unmarked) [Compound 2036a] | + (a “+” indicates that the compound has an MIC value of 16 micrograms/ml or less)
20 | CC(C)(C)NCC(=O)Nc1ccc(-c2cc3cn(-c4ccc(CNCCCN=C(N)N)cc4)c(=O)nc3[nH]2)cc1 [Compound 1218] | + (a “+” indicates that the compound has an MIC value of 16 micrograms/ml or less)
21 | N=C(N)N[C@@H]1CCN(Cc2ccc(-n3cc4cc(-c5ccc(S(=O)(=O)N(CCCn6cnnc6)C6CCNCC6)cc5)[nH]c4nc3=O)cc2)C1 [Compound 1219] | − (a “−” indicates that the compound has an MIC value greater than 16 micrograms/ml)
22 | N=C(N)NCCCN1CC=C(n2cc3cc(-c4ccc(S(=O)(=O)N(CC5CC5)C5CCNCC5)cc4)[nH]c3nc2=O)CC1 [Compound 969] | + (a “+” indicates that the compound has an MIC value of 16 micrograms/ml or less)

same assay, conditions: Escherichia coli, ATCC25922, Escherichia coli strain ATCC25922, microdilution; read-out: E. coli ATCC25922 MIC

Row | SMILES | MIC [µg/mL]
23 | N=C(N)CCCOc1cccc(-c2cc3cn(-c4ccc(CNCCCNC(=N)N)cc4)c(=O)nc3[nH]2)c1 [Compound 1191] | > 16
24 | N=C(N)NCCCN(CCCN)Cc1ccc(-n2cc3cc(-c4ccc(C(=O)NC5CCNCC5)cc4)[nH]c3nc2=O)cc1 [Compound 217] | < 16
25 | N=C(N)NCCCCN1CCC(n2cc3c(nc2=O)[nH]c2ccccc23)C1 (centres unmarked) [Compound 562, N-{4-[3-(2-oxo-2,9-dihydro-1,3,9-triaza-fluoren-3-yl)-pyrrolidine-1-yl]-butyl}-guanidine] | > 16

The remaining lines, values ahead:

Row | MIC [µg/mL] | SMILES
26 | < 16 | N=C(N)NCCCNCc1ccc(-n2cc3cc(CCS(=O)(=O)CCN)[nH]c3nc2=O)cc1 [Compound 1189]
27 | < 16 | N=C(N)NCCCNCc1ccc(-n2cc3cc(-c4cc(C(=O)Nc5ccc(F)cc5)cc(N5CCNCC5)c4)[nH]c3nc2=O)cc1 [Compound 761]
28 | > 16 | N=C(N)N[C@H]1CCCN(Cc2ccc(-n3cc4cc[nH]c4nc3=O)cc2)C1 [Compound 1155]
29 | > 16 | O=c1nc2[nH]c(-c3ccc(S(=O)(=O)NC4CCNCC4)c(Cl)c3)cc2cn1-c1ccc(CNCCCF)cc1 [Compound 261]
30 | > 16 | N=C(N)NCCCNCc1ccc(-c2cn3cc(-c4ccc(C(=O)N5CCC(O)C5)cc4)[nH]c3nc2=O)cc1 (centres unmarked) [Compound 653]
31 | < 16 | N=C(N)NCCCNCc1ccc(-n2cc3cc(-c4ccc(S(=O)(=O)C5CCNCC5)cc4)[nH]c3nc2=O)cc1 [Compound 1180]
32 | < 16 | Cc1cc(F)cc(CN(C2CCNCC2)S(=O)(=O)c2ccc(-c3cc4cn(-c5ccc(CN(CCCN)CCCN)cc5)c(=O)nc4[nH]3)cc2)c1 [Compound 237]
33 | > 16 | COCCOCCOc1cccc(-c2cc3cn(-c4ccc(CNCCCNC(=N)N)cc4)c(=O)nc3[nH]2)c1 [Compound 1101]
34 | > 16 | NCc1ccc(-n2cc3cc(-c4cccc(OC[C@H](F)CN)c4)[nH]c3nc2=O)cc1 [Compound 1443]
35 | > 16 | CNCc1ccc(-n2cc3cc(-c4ccc(S(=O)(=O)N(CCCc5cccc(OC)c5)C5CCNCC5)cc4)[nH]c3nc2=O)cc1 [Compound 1034]
36 | > 16 | O=c1nc2[nH]c(-c3ccc(S(=O)(=O)NC4CCNCC4)cc3)cc2cn1-c1cccc(OC2CCNC2)c1 (centres unmarked) [Compound 1148]
37 | > 16 | NCc1ccc(-n2cc3cc(-c4cccc(OCCCc5ccc(Cl)cc5)c4)[nH]c3nc2=O)cc1 [Compound 1128]
38 | < 16 | CN1CCC(NC(=O)c2ccc(-c3cc4cn(-c5ccc(CN(CCCN)CCCN)cc5)c(=O)nc4[nH]3)cc2)CC1 [Compound 204]
39 | < 16 | NCCCN(CCCN)Cc1ccc(-n2cc3cc(-c4ccc(S(=O)(=O)NC5CCNCC5)cc4F)[nH]c3nc2=O)cc1 [Compound 200]
40 | > 16 | NCc1ccc(-n2cc3cc(-c4cccc(OCCO)c4)[nH]c3nc2=O)cc1 [Compound 1100]
41 | > 16 | CC(=O)NCCOc1cccc(-c2cc3cn(-c4ccc(CN)cc4)c(=O)nc3[nH]2)c1 [Compound 1143]
42 | > 16 | NCCCNCc1ccc(-n2cc3cc(C4=CCCCC4)[nH]c3nc2=O)cc1 [Compound 623]
43 | > 16 | Cn1cc2cc(-c3ccc(F)cc3)[nH]c2nc1=O [Compound 580]
44 | < 16 | NCCCNCc1ccc(-n2cc3cc(CCNC4CCNCC4)[nH]c3nc2=O)cc1 [Compound 687]
45 | < 16 | N=C(N)CCCOc1cccc(-c2cc3cn(-c4ccc(CNCCCN)cc4)c(=O)nc3[nH]2)c1 [Compound 1216]
46 | < 16 | N=C(N)NCCCNCc1ccc(-n2cc3cc(C4CCCC(CNCCN)C4)[nH]c3nc2=O)cc1 (centres unmarked) [Compound 2026a]
47 | > 16 | NCCCc1cccc(-c2cc3cn(-c4ccc(CN)cc4)c(=O)nc3[nH]2)c1 [Compound 2057a]
